Assay results as given in paper PMC10746543, “Design principles for cyclin K molecular glue degraders” (Nature Chemical Biology, 2023).
Values joined by “and” are separate entries in the source; they are usually repeats but may differ in a detail not shown here. Equal values may be shown once. Read-outs that look alike come from different tables or passages of the source.

Legend:
HEK293T cells = assay: Drug sensitivity assay (CellTiter-Glo viability) with or without MLN4924 pretreatment; assay type: cell-based, human; conditions: for EC50: Homo sapiens, HEK-293T; for Toxicity rescue: MLN4924-mediated cytotoxicity rescue, 10 µM used where n.d.
In short: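 HEK293T–Cas9, 0.15 × 10^6 ml^−1; pretreat DMSO vs 100 nM MLN4924; drugs dispensed after 2 h; 3 d exposure; CellTiter-Glo; viability vs DMSO control.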

[1] = test system: cyclin K–eGFP degradation reporter; assay: Cyclin K reporter stability analysis (dual-color cyclin K–eGFP reporter); assay type: cell-based, human; conditions: source data sheet correlations; read-out: DC50
In short: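 Readout was the eGFP-to-mCherry geometric-mean ratio by flow cytometry, normalized to three DMSO controls, after 5 h drug exposure. Cells used were HEK293T–Cas9 expressing the dual-colour cyclin K–eGFP degradation reporter.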

CDK12–cyclin K and DDB1 = biological target: T1, CDK12–cyclin K and DDB1 (Homo sapiens, UniProt Q16531+Q9NYV4, K965R); assay: TR-FRET ternary complex formation assay (compound titration); assay type: binding; conditions: for TR-FRET signal at compound concentration 4.68 nM / TR-FRET signal at compound concentration 21.6 nM / TR-FRET signal at compound concentration 36 nM / TR-FRET signal at compound concentration 79.2001 nM / TR-FRET signal at compound concentration 158.4 nM / TR-FRET signal at compound concentration 309.6 nM / TR-FRET signal at compound concentration 626.401 nM / TR-FRET signal at compound concentration 1252.8 nM / TR-FRET signal at compound concentration 2448 nM / TR-FRET signal at compound concentration 9936.01 nM / TR-FRET signal at compound concentration 20016 nM: raw titration data
T1 construct: His6–CDK12 (a.a. 713–1,052); full-length or beta-propeller B domain deletion (ΔBPB: a.a. 396–705 deleted) constructs of His6–DDB1ΔBPB, StrepII–Avi–DDB1, or His6–Spy–DDB1; made in house; host or cells: Trichoplusia ni High Five insect cells (baculovirus)
T1 sequence (Q9NYV4 713-1052 K965R): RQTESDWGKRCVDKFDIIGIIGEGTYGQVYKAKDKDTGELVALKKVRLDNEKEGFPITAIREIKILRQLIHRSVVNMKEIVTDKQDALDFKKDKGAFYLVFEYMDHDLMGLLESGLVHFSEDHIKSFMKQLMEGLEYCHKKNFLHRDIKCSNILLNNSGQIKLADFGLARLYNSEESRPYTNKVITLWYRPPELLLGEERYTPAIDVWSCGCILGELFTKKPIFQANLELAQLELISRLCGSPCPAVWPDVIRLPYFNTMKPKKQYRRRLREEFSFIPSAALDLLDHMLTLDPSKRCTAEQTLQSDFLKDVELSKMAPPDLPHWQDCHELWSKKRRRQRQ
T1 sequence (O75909 1-267 partner): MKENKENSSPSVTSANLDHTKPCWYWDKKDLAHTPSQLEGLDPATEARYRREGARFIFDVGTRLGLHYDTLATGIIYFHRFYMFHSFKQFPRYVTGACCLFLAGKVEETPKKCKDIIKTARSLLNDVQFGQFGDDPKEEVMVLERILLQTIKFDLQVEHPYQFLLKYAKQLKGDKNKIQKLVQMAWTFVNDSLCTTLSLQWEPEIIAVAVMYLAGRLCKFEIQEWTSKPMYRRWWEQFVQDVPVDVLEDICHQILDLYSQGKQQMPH
T1 sequence (Q16531 whole entry): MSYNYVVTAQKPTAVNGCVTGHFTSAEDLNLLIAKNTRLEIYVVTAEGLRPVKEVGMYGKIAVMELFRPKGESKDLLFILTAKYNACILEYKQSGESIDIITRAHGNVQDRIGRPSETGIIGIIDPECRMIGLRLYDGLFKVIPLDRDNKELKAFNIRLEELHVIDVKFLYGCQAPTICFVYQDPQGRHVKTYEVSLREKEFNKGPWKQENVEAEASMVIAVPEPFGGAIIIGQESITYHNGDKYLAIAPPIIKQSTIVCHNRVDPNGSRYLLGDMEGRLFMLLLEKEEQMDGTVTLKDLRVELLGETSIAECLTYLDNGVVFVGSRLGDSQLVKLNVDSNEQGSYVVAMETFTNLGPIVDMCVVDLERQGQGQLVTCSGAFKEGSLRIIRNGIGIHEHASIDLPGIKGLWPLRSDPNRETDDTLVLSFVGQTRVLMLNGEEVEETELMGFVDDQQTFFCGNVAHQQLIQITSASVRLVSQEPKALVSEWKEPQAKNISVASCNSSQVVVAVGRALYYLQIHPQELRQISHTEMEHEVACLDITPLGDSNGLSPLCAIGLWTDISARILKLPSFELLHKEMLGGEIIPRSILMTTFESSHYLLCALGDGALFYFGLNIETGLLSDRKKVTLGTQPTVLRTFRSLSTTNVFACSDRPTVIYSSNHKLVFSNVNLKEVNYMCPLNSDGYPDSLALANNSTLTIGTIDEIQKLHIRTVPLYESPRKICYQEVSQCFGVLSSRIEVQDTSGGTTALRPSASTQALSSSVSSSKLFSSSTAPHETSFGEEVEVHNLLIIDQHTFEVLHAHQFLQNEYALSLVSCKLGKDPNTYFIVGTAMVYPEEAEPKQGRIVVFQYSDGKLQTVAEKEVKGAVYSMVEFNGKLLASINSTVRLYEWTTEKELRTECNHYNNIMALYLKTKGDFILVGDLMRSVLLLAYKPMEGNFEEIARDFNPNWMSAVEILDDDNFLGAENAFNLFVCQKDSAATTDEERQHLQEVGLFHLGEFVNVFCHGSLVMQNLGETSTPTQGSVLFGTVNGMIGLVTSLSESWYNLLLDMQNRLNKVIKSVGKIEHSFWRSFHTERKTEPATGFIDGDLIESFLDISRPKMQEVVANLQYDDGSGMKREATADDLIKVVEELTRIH
In short: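 Signal was the ratio of 520 nm to 490 nm fluorescence, measured after a 70 μs delay that reduced background.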

[2] = Supplementary Table 2, HEK293T viability, 72 h, compound alone, read-out: Cellular assays EC50
[3] = in vitro complex formation, 50 nM CDK12–cyclin K, 100 nM DDB1, text and figures, read-out: TR-FRET EC50
[4] = sheet MOESM7, read-out: log TR-FRET EC50 (converted)
[5] = source data sheet correlations, read-out: TR-FRET EC50

Compound	EC50 (HEK293T cells; [2]) [nM]	Toxicity rescue (HEK293T cells; Supplementary Table 2) [%]	DC50 [1] [nM]	EC50 (CDK12–cyclin K and DDB1; [3]) [nM]	EC50 (CDK12–cyclin K and DDB1; [4]) [nM]	EC50 (CDK12–cyclin K and DDB1; [5]) [nM]	TR-FRET signal at compound concentration 4.68 nM (CDK12–cyclin K and DDB1)	TR-FRET signal at compound concentration 21.6 nM (CDK12–cyclin K and DDB1)	TR-FRET signal at compound concentration 36 nM (CDK12–cyclin K and DDB1)	TR-FRET signal at compound concentration 79.2001 nM (CDK12–cyclin K and DDB1)	TR-FRET signal at compound concentration 158.4 nM (CDK12–cyclin K and DDB1)	TR-FRET signal at compound concentration 309.6 nM (CDK12–cyclin K and DDB1)	TR-FRET signal at compound concentration 626.401 nM (CDK12–cyclin K and DDB1)	TR-FRET signal at compound concentration 1252.8 nM (CDK12–cyclin K and DDB1)	TR-FRET signal at compound concentration 2448 nM (CDK12–cyclin K and DDB1)	TR-FRET signal at compound concentration 9936.01 nM (CDK12–cyclin K and DDB1)	TR-FRET signal at compound concentration 20016 nM (CDK12–cyclin K and DDB1)	further results
Cn1cc(-n2cnc3c(NCc4nc5cc(Cl)c(Cl)cc5[nH]4)nc(NCCc4cn[nH]c4)nc32)cn1 [DS57]	> 10000	0	587	72 ± 5	72.3	72.3	–	–	–	–	–	–	–	–	–	–	–	TR-FRET signal at compound concentration 0.468 nM (CDK12–cyclin K and DDB1; compound concentration 0.468 nM, raw replicate titration data): 0.2681 and 0.2803; TR-FRET signal at compound concentration 2.16 nM (CDK12–cyclin K and DDB1; compound concentration 2.16 nM, raw replicate titration data): 0.3056 and 0.3131; TR-FRET signal at compound concentration 3.6 nM (CDK12–cyclin K and DDB1; compound concentration 3.6 nM, raw replicate titration data): 0.3611 and 0.3774; TR-FRET signal at compound concentration 7.92001 nM (CDK12–cyclin K and DDB1; compound concentration 7.92001 nM, raw replicate titration data): 0.4715 and 0.4922; TR-FRET signal at compound concentration 15.84 nM (CDK12–cyclin K and DDB1; compound concentration 15.84 nM, raw replicate titration data): 0.6621 and 0.6827; TR-FRET signal at compound concentration 30.96 nM (CDK12–cyclin K and DDB1; compound concentration 30.96 nM, raw replicate titration data): 1.043 and 1.045; TR-FRET signal at compound concentration 62.6401 nM (CDK12–cyclin K and DDB1; compound concentration 62.6401 nM, raw replicate titration data): 1.709 and 1.668; TR-FRET signal at compound concentration 125.28 nM (CDK12–cyclin K and DDB1; compound concentration 125.28 nM, raw replicate titration data): 2.476 and 2.42; TR-FRET signal at compound concentration 244.8 nM (CDK12–cyclin K and DDB1; compound concentration 244.8 nM, raw replicate titration data): 2.963 and 3.026; TR-FRET signal at compound concentration 993.601 nM (CDK12–cyclin K and DDB1; compound concentration 993.601 nM, raw replicate titration data): 3.269 and 3.459; TR-FRET signal at compound concentration 2001.6 nM (CDK12–cyclin K and DDB1; compound concentration 2001.6 nM, raw replicate titration data): 3.336 and 3.495
CC(C)n1cnc2c(NCc3ccc(-c4ccccn4)cc3)nc(N[C@@H](Cc3ccc(OCc4ccccc4)cc3)c3nnc[nH]3)nc21 [DS58]	1780	461	2020	948 ± 61	948	948	0.2093 and 0.2396	0.2345 and 0.3021	0.286 and 0.3105	0.3776 and 0.414	0.5529 and 0.574	0.8665 and 0.8767	1.353 and 1.369	2.037 and 2.014	2.68 and 2.699	3.329 and 3.445	3.076 and 3.1	EC50 (HEK293T cells; Supplementary Fig. 5, HEK293T, CellTiter Glo, 72h, read-out: Viability EC50, no MLN4924): 1750 nM
Cc1nn(C)c(CNc2nc(NCc3ccc(-c4ccccn4)cc3)c3ncn(C(C)C)c3n2)c1S(N)(=O)=O [DS59]	1420	230	566	101 ± 5	–	101	0.1939 and 0.1953	0.4174 and 0.4335	0.8682 and 0.9198	1.565 and 1.549	2.139 and 2.165	2.574 and 2.56	2.883 and 2.886	3.135 and 3.111	3.2283 and 3.26	3.148 and 3.114	2.946 and 3.018	–
